# Legend:
# physchem [1] = test: physchem
# in vitro [2] = settings: Beagle, dog, plasma
# physchem [3] = settings: pH 7.4 buffer
# physchem [4] = test: physchem; remark: listed apart in the source
# in vitro [5] = settings: SD, HW or BN, rat, plasma
# physchem [6] = settings: octan-1-ol/water
# in vitro [7] = settings: human, plasma
# in vitro [8] = settings: human, hepatocytes
# in vitro [9] = settings: hepatocytes
# in vitro [10] = settings: human
SMILES,pKa (physchem [1]),fraction unbound at 5 h (in vitro [2]),fraction unbound at 5 h (in vitro [5]),"logD (physchem [6]; pH 7.4, LogD7.4)",hepatocyte CLint (in vitro [9]) [µL/min/1e6 cells],other results
N#Cc1cccc(S(=O)(=O)NC[C@@H](O)CN2CCC(Oc3ccc(Cl)c(Cl)c3)CC2)c1,10.1,,,,,
O=C(O)c1coc2ccccc2c1=O,4,,,,,
Cn1nnnc1SCC1=C(C(=O)O)N2C(=O)[C@@H](NC(=O)[C@H](O)c3ccccc3)[C@H]2SC1 [CEFAMANDOLE],3.29,,,,,
COC(=O)C1=C(C)NC(C)=C(C(=O)OCCN(C)Cc2ccccc2)C1c1cccc([N+](=O)[O-])c1 (stereo not given) [NICARDIPINE],,0.004,0.0039,,,solubility thermodynamic (physchem [3]): 7.4 µM; pKa (physchem [4]): 7.26
NS(=O)(=O)c1cc(C2(O)NC(=O)c3ccccc32)ccc1Cl (stereo not given) [CHLORTHALIDONE],9.11,,,,,logD (physchem [6]; pH 7.4): 0.97; solubility thermodynamic (physchem [3]): 501 µM
O=C(O)COc1ccc(Cl)cc1CN1CCN(S(=O)(=O)c2ccccc2)CC1,,0.04,0.132,0.49,,fraction unbound at 5 h (in vitro [7]; PPB): 0.0383; pKa (physchem [4]): 6.8
CC[C@H](C)C(=O)O[C@H]1C[C@H](O)C=C2C=C[C@H](C)[C@H](CC[C@@H](O)C[C@@H](O)CC(=O)O)[C@H]21 [PRAVASTATIN],,0.608,0.349,-0.76,27,hepatocyte CLint (in vitro [8]): < 3 µL/min/1e6 cells; microsomal CLint (in vitro [10]; microsomes): < 3 µL/min/mg
CCC(=O)O[C@]1(C(=O)SCF)[C@H](C)C[C@H]2[C@@H]3C[C@H](F)C4=CC(=O)C=C[C@]4(C)[C@@]3(F)[C@@H](O)C[C@@]21C [FLUTICASONE PROPIONATE],,0.0116,0.0153,,107,hepatocyte CLint (in vitro [8]): > 150 µL/min/1e6 cells; fraction unbound at 5 h (in vitro [7]; PPB): 0.0191
CC1=NS(=O)(=O)c2cc(Cl)ccc2N1 [DIAZOXIDE],8.42,,,1.05,,
O=C(O)c1cc(=O)c2ccccc2o1 [CHROMOCARB],< 2,,,,,
C[C@H](CO)Nc1nc(SCc2ccccc2)nc2[nH]c(=O)sc12,,0.0219,,2.86,< 3,hepatocyte CLint (in vitro [8]): 19.4 µL/min/1e6 cells; fraction unbound at 5 h (in vitro [7]; PPB): 0.0029; solubility thermodynamic (physchem [3]): 53.7 µM; microsomal CLint (in vitro [10]; liver microsomes): 4 µL/min/mg
C[C@H]1CN(Cc2cc(Cl)ccc2OCC(=O)O)CCN1C(=O)Cc1ccc(Cl)cc1,,0.0262,0.0383,,< 3,hepatocyte CLint (in vitro [8]): < 3 µL/min/1e6 cells; fraction unbound at 5 h (in vitro [7]): 0.0187; microsomal CLint (in vitro [10]; liver microsomes): < 3 µL/min/mg
Cc1nnc(NS(=O)(=O)c2ccc(N)cc2)s1 [SULFAMETHIZOLE],5.4,,,-1.33,,fraction unbound at 5 h (in vitro [7]; PPB): 0.0647
O=C(O)c1cc(=O)c2cc(Cl)ccc2o1,< 2,,,,,
N#Cc1sccc1NS(=O)(=O)c1ccc(Cl)cc1,5.1,,,,,
O=C(O)c1cc(=O)c2ccccc2[nH]1 [TRANSTORINE],2.5,,,,,
O=C(O)COc1ccc(Cl)cc1CN1CCN(S(=O)(=O)c2ccc(F)cc2)CC1,,0.0768,0.089,0.99,< 3,hepatocyte CLint (in vitro [8]): < 3 µL/min/1e6 cells; fraction unbound at 5 h (in vitro [7]; PPB): 0.0101
Cc1nnc(C(=O)NC(C)(C)c2nc(C(=O)NCc3ccc(F)cc3)c(O)c(=O)n2C)o1,3.97,,,,,
CCNC(=O)C[C@@H]1N=C(c2ccc(Cl)cc2)c2cc(OC)ccc2-n2c(C)nnc21 [MOLIBRESIB],,0.324,0.314,,10.2,fraction unbound at 5 h (in vitro [7]): 0.24; pKa (physchem [4]): 2.1; microsomal CLint (in vitro [10]; microsomes): 14.1 µL/min/mg
Cn1c(=O)c2nn[nH]c2n(C)c1=O,4.4,,,,,
O=C(NCC12CC3CC(CC(C3)C1)C2)c1cc(CN2CCNCC2)ccc1Cl,,0.157,0.062,1.84,4,hepatocyte CLint (in vitro [8]): 4.46 µL/min/1e6 cells; fraction unbound at 5 h (in vitro [7]; PPB): 0.0872; solubility thermodynamic (physchem [3]): 74.1 µM; pKa (physchem [4]): 8.85; microsomal CLint (in vitro [10]; microsomes): 18 µL/min/mg
CC(C)(C)NC(=O)c1ccc(Oc2cc(F)c(CC(=O)O)cc2Cl)c(NS(=O)(=O)c2ccc(C3CC3)cc2Cl)c1 [VIDUPIPRANT],,0.0039,,,6,hepatocyte CLint (in vitro [8]): 6 µL/min/1e6 cells; fraction unbound at 5 h (in vitro [7]; PPB): 0.0015; solubility thermodynamic (physchem [3]): 851 µM; microsomal CLint (in vitro [10]; liver microsomes): < 3 µL/min/mg
O=C(NCC12CC3CC(CC(C3)C1)C2)c1cc(OC2CCNCC2)ccc1Cl,,0.0768,,1.83,,pKa (physchem [4]): 9; microsomal CLint (in vitro [10]; microsomes): 28 µL/min/mg
Cc1ncc2n1-c1ccc(Cl)cc1C(c1ccccc1F)=NC2 [MIDAZOLAM],,0.02,0.0457,,121,hepatocyte CLint (in vitro [8]): 32.4 µL/min/1e6 cells; fraction unbound at 5 h (in vitro [7]): 0.0175; solubility thermodynamic (physchem [3]): 72.4 µM; pKa (physchem [4]): 6.11
CC(C)NCC(O)COc1ccc(COCCOC(C)C)cc1 (stereo not given) [BISOPROLOL],,0.743,0.768,0.1,25.1,pKa (physchem [4]): 9.87
Cc1ccc(S(=O)(=O)NC(=O)NN2CCCCCC2)cc1 [TOLAZAMIDE],5.8,,,0.01,,
CCS(=O)(=O)c1ccc(-c2cc(C(F)(F)F)ccc2OC(C)(C)C(=O)O)c(C)c1,3.2,,,,,
CC1(C)S[C@@H]2[C@H](NC(=O)[C@H](NC(=O)N3CCNC3=O)c3ccccc3)C(=O)N2[C@H]1C(=O)O [AZLOCILLIN],2.41,,,,,
Nc1ccc(S(=O)(=O)Nc2ncccn2)cc1 [SULFADIAZINE],6.29,,,,,
Cc1cn(Cc2ccccc2)c(=O)[nH]c1=O,9.4,,,,,logD (physchem [6]; pH 7.4): 1.19
